Laboratory results taken from patent US8980886B2, “Anthranilic acid derivatives” (Bayer Cropscience AG, priority 2010, dated 2015).

Experiments:
Lucilia cuprina = Lucilia cuprina test (LUCICU); format: in vivo; conditions: 48 h, treated horse meat, larvae, after 2 days, read-out: kill in %
Method: (§1) Solvent: dimethyl sulphoxide To produce a suitable preparation of active compound, 10 mg of active compound are mixed with 0.5 ml of dimethyl sulphoxide and the concentrate is diluted with water to the desired concentration. Vessels containing horse meat treated with the active compound preparation of the desired concentration are populated with about 20 Lucilia cuprina larvae. After 2 days, the kill in % is determined. 100% means that all of the larvae have been killed; 0% means that none of the larvae have been killed.

[1] = logP by HPLC on reversed-phase columns (C 18), EEC Directive 79/831 Annex V.A8; format: physicochemical; conditions: reversed-phase HPLC column (C 18), pH 2.7, HPLC, reversed-phase C 18, acidic range pH 2.7; table of compounds; read-out: log P
Method: The logP values reported in the table above and in the Preparation Examples were determined in accordance with EEC Directive 79/831 Annex V.A8 by HPLC (High Performance Liquid Chromatography) on reversed-phase columns (C 18), with the following methods: The LC-MS determination in the acidic range is carried out at pH 2.7 using the mobile phases 0.1% aqueous formic acid and acetonitrile (contains 0.1% formic acid), linear gradient from 10% acetonitrile to 95% acetonitrile Calibration was carried out using unbranched alkan-2-ones (having from 3 to 16 carbon atoms) with known logP values (the logP values were determined by the retention times using linear interpolation between two successive alkanones).

Tetranychus urticae = assay: Tetranychus test, OP-resistant (TETRUR spray treatment); format: in vivo; conditions: 100 g/ha, sprayed bean leaf discs, all stages, after 6 days
Method: Solvents: 78.0 parts by weight of acetone 1.5 parts by weight of dimethylformamide Emulsifier: 0.5 part by weight of alkylaryl polyglycol ether To produce a suitable preparation of active compound, 1 part by weight of active compound is mixed with the stated amount of solvents and emulsifier, and the concentrate is diluted with emulsifier-containing water to the desired concentration. Discs of bean leaves (Phaseolus vulgaris) which are infested by all stages of the greenhouse red spider mite (Tetranychus urticae) are sprayed with an active compound preparation of the desired concentration. After 6 days, the activity in % is determined. 100% means that all of the spider mites have been killed; 0% means that none of the spider mites have been killed.

Phaedon cochleariae = assay: Phaedon test (PHAECO spray treatment); format: in vivo; conditions: 168 h, sprayed Chinese cabbage discs, after 7 days, read-out: activity in % (beetle larvae killed)
Method: (§2) Solvents: 78.0 parts by weight of acetone 1.5 parts by weight of dimethylformamide Emulsifier: 0.5 part by weight of alkylaryl polyglycol ether To produce a suitable preparation of active compound, 1 part by weight of active compound is mixed with the stated amount of solvents and emulsifier, and the concentrate is diluted with emulsifier-containing water to the desired concentration. Discs of Chinese cabbage (Brassica pekinensis) are sprayed with an active compound preparation of the desired concentration and, after drying, populated with larvae of the mustard beetle (Phaedon cochleariae). After 7 days, the activity in % is determined. 100% means that all beetle larvae have been killed; 0% means that none of the beetle larvae have been killed.

Spodoptera frugiperda = Spodoptera frugiperda test (SPODFR spray treatment); format: in vivo; conditions: foliar, 168 h, sprayed maize leaf discs, after 7 days, read-out: effect in % (caterpillars killed)
Method: as §2, with “maize leaves (Zea mays)” for “Chinese cabbage (Brassica pekinensis)”, “caterpillars” for “larvae”, “armyworm (Spodoptera frugiperda).” for “mustard beetle (Phaedon cochleariae).”, “effect” for “activity”, “determined” for “determined.”, “caterpillars” for “beetle larvae”

Boophilus microplus = Boophilus microplus test (BOOPMI injection); format: in vivo; conditions: 20 μg/animal, injection into the abdomen, after 7 days
Method: Solvent: dimethyl sulphoxide To produce a suitable preparation of active compound, 10 mg of active compound are mixed with 0.5 ml of solvent and the concentrate is diluted with solvent to the desired concentration. The active compound solution is injected into the abdomen (Boophilus microplus), and the animals are transferred into dishes and stored in a climate-controlled room. The activity is assessed by […] of fertile eggs. After 7 days, the effect in % is determined. 100% means that none of the ticks has laid any fertile eggs.

Musca domestica = Musca domestica test (MUSCDO); format: in vivo; conditions: 100 ppm, treated sponge, adult flies, after 2 days
Method: as §1, with “a sponge” for “horse meat”, “adult Musca domestica.” for “about 20 Lucilia cuprina larvae.”, “flies” for “larvae”

Myzus persicae = assay: Myzus test (MYZUPE spray treatment); format: in vivo; conditions: 100 g/ha, sprayed Chinese cabbage discs, all stages, after 6 days
Method: Solvents: 78 parts by weight of acetone 1.5 parts by weight of dimethylformamide Emulsifier: 0.5 part by weight of alkylaryl polyglycol ether To produce a suitable preparation of active compound, 1 part by weight of active compound is mixed with the stated amount of solvents and emulsifier, and the concentrate is diluted with emulsifier-containing water to the desired concentration. Discs of Chinese cabbage (Brassica pekinensis) infested by all stages of the green peach aphid (Myzus persicae) are sprayed with an active compound preparation of the desired concentration. After 6 days, the effect in % is determined. 100% means that all of the aphids have been killed; 0% means that none of the aphids have been killed.

Compound	pest or weed control at 100 ppm (Lucilia cuprina) [%]	chromatographic logP [1]	activity in % (spider mites killed) (Tetranychus urticae) [%]	pest or weed control at 100 g/ha (Phaedon cochleariae) [%]	pest or weed control at 100 g/ha (Spodoptera frugiperda) [%]	effect in % (no fertile eggs laid) (Boophilus microplus) [%]	kill in % (Musca domestica) [%]	effect in % (aphids killed) (Myzus persicae) [%]
Cc1cc(Br)cc(C(N)=O)c1NC(=O)c1sc(Cn2nnc(C(F)(F)F)n2)nc1-c1ccccc1Cl [Compound 3]	100	3.45	100					
Cc1cc(Cl)cc(C(=O)NC(C)(C)C)c1NC(=O)c1nc(Cn2nnc(C(F)(F)F)n2)sc1-c1ccccc1Cl [Compound 8]		4.75	80					
Cc1cc(C#N)cc(C(=O)NC(C)C)c1NC(=O)c1cnc(Cn2nnc(C(F)(F)F)n2)nc1-c1ccccc1Cl [Compound 37]	100	3.5		100	100	100	100	
CNC(=O)c1cc(C#N)cc(C)c1NC(=O)c1cc(Cn2nnc(C(F)(F)F)n2)cn1-c1ccccc1Cl [Compound 42]		3.31		100	100			80
CNC(=O)c1cc(Cl)cc(C)c1NC(=O)c1cc(Cn2nnc(C(F)(F)F)n2)cn1-c1ccccc1Cl [Compound 43]		3.75		100	100			100
